Test results as given in patent publication US20260042753A1 (Merck Patent GmbH, priority 2019, published 2026).
Read-outs that look alike come from different tables or passages of the source.

What was measured:
c-Kit(V654A) = c-Kit(V654A) (Homo sapiens, UniProt P10721, V654A); experiment: c-Kit(V654A) assay; type: biochemical
In short: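 Radiometric filter-binding read-out: after 3% phosphoric acid stop, peptide-incorporated 33P on filtermat scintillation-counted. Enzyme: human c-Kit V654A, residues 544–end, N-terminal GST fusion.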

[1] = molecular target: mutant cKIT (560-576 and V654A) in GIST430/654 cell line (Homo sapiens (Human), UniProt P10721, DEL560-576/V654A); experiment: Cellular testing of cKIT mutant inhibitors: phospho-Y307-cKIT Luminex assay in GIST430/654 cells; type: cell-based; details: read-out: GIST 430/654 IC50
In short: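 GIST430/654 cells carrying constitutively active cKIT (Δ560-576/V654A) were grown with 100 nM imatinib, then treated with serially diluted compound for 45 min. Lysates were captured on anti-total-cKIT Luminex beads overnight at 4 °C and probed for phospho-Y307-cKIT. IC50 was fitted from percent of 0.3% DMSO control.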

[2] = Table 1, cKIT autophosphorylation, compounds 45 min
[3] = Table 2, corresponding triazole derivatives

mutant cKIT (560-576 and V654A) in GIST430/654 cell line, sequence (P10721 other isoform, or with tags, fused parts or gaps V654A/del 1-25/del 560-576 limits assumed): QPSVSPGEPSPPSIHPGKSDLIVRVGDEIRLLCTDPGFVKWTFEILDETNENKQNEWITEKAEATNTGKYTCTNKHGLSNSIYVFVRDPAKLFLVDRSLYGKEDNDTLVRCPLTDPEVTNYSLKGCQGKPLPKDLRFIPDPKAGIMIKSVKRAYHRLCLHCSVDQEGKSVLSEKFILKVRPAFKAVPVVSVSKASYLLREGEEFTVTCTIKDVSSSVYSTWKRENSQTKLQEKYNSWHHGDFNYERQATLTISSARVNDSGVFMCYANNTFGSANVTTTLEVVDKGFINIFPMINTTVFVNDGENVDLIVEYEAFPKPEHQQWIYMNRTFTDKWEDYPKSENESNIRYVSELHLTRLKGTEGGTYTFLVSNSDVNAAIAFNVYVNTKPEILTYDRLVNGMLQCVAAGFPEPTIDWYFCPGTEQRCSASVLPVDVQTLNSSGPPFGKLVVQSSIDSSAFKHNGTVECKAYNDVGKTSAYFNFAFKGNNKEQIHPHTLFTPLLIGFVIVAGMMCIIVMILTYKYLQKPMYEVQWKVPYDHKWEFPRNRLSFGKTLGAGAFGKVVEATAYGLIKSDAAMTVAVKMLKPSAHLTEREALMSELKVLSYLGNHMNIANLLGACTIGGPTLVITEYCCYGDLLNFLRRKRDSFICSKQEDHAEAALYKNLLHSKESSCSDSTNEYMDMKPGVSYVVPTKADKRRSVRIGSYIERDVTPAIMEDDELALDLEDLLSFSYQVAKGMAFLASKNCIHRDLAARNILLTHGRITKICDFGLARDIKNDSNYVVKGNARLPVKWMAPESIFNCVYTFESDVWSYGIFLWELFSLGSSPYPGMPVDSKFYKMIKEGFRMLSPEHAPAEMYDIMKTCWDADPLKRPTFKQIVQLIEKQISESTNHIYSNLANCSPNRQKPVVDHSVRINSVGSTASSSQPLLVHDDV

Compound | IC50 (c-Kit(V654A); Table 1, 200 μM ATP) | IC50 [1, 2] | IC50 (c-Kit(V654A); [3]) | IC50 [1, 3]
COCCOc1cc2[nH]nc(-c3cc(-c4ccc(N5CC(N6CCOCC6)C5)nc4)no3)c2cc1F [A145, 5-fluoro-6-(2-methoxyethoxy)-3-(3-{6-[3-(morpholin-4-yl)azetidin-1-yl]pyridin-3-yl}-1,2-oxazol-5-yl)-1H-indazole] | 4.8 nM | 1100 nM |  | 
COCCOc1cc2[nH]nc(-c3cc(-c4ccc(C(=O)N5CCN(C6COC6)CC5)cc4)no3)c2cc1F [A45, (4-{5-[5-fluoro-6-(2-methoxy-ethoxy)-1H-indazol-3-yl]-isoxazol-3-yl}-phenyl)-(4-oxetan-3-yl-piperazin-1-yl)-methanone] | 1.2 nM | 59 nM |  | 
COCCOc1cc2[nH]nc(-c3cc(-c4ccc(C(=O)N5CCCN(C6COC6)CC5)cc4)no3)c2cc1F [A198, 5-fluoro-6-(2-methoxyethoxy)-3-(3-{4-[4-(oxetan-3-yl)-1,4-diazepane-1-carbonyl]phenyl}-1,2-oxazol-5-yl)-1H-indazole] | 0.92 nM | 73 nM |  | 
COCCOc1cc2[nH]nc(-c3cc(-c4ccc(C(=O)N5CC6(CCOCC6)C5)cc4)no3)c2cc1F [A165, 2-(4-{5-[5-fluoro-6-(2-methoxyethoxy)-1H-indazol-3-yl]-1,2-oxazol-3-yl}benzoyl)-7-oxa-2-azaspiro[3.5]nonane] | 0.53 nM | 27 nM |  | 
COCCOc1cc2[nH]nc(-c3cc(-c4ccc(C(=O)N5CCN(C6COC6)CC5)c(C)c4)no3)c2cc1F [A193, (4-{5-[5-fluoro-6-(2-methoxy-ethoxy)-1H-indazol-3-yl]-isoxazol-3-yl}-2-methyl-phenyl)-(4-oxetan-3-yl-piperazin-1-yl)-methanone] | 2.5 nM | 73 nM |  | 
COCCOc1cc2[nH]nc(-c3cn(-c4ccc(C(=O)N5CCOC[C@H]5C)cc4)nn3)c2cc1F [reference compound] |  |  | 4.3 nM | 230 nM
COCCOc1cc2[nH]nc(-c3cc(-c4ccc(C(=O)N5CCOC[C@H]5CO)cc4)no3)c2cc1F [A105, [(3R)-4-(4-{5-[5-fluoro-6-(2-methoxyethoxy)-1H-indazol-3-yl]-1,2-oxazol-3-yl}benzoyl)morpholin-3-yl]methanol] | 1.2 nM | 140 nM |  | 
COCCOc1cc2[nH]nc(-c3cc(-c4ccc(C(=O)N5CC(c6cnn(C)c6)C5)cc4)no3)c2cc1F [A218, 5-fluoro-6-(2-methoxyethoxy)-3-(3-{4-[3-(1-methyl-1H-pyrazol-4-yl)azetidine-1-carbonyl]phenyl}-1,2-oxazol-5-yl)-1H-indazole] | 0.62 nM | 47 nM |  | 
COCCOc1cc2[nH]nc(-c3cc(-c4ccc(-n5ccccc5=O)cc4)no3)c2cc1F [A41, 1-(4-{5-[5-Fluoro-6-(2-methoxy-ethoxy)-1H-indazol-3-yl]-isoxazol-3-yl}-phenyl)-1H-pyridin-2-one] | 3.1 nM | 120 nM |  | 
COCCOc1cc2[nH]nc(-c3cn(-c4ccc(C5CCNCC5(C)C)cc4)nn3)c2cc1F (stereo not drawn) [reference compound] |  |  | 21 nM | 120 nM
COCCOc1cc2[nH]nc(-c3cc(-c4ccc(C(=O)N5CCN(C6COC6)CC5)nc4)no3)c2cc1F [A68, (5-{5-[5-fluoro-6-(2-methoxy-ethoxy)-1H-indazol-3-yl]-isoxazol-3-yl}-pyridin-2-yl)-(4-oxetan-3-yl-piperazin-1-yl)-methanone] | 16 nM | 870 nM |  | 
COCCOc1cc2[nH]nc(-c3cc(-c4ccc(C(=O)N5CC(N6CCOCC6)C5)cn4)no3)c2cc1F [A82, 5-fluoro-6-(2-methoxyethoxy)-3-(3-{5-[3-(morpholin-4-yl)azetidine-1-carbonyl]pyridin-2-yl}-1,2-oxazol-5-yl)-1H-indazole] | 9.8 nM | 420 nM |  | 
COCCOc1cc2[nH]nc(-c3cn(-c4ccc(C(=O)N5CCN(C)CC5)cc4)nn3)c2cc1F [reference compound] |  |  | 15 nM | 840 nM
COCCOc1cc2[nH]nc(-c3cc(-c4ccc(C(=O)N5CCCOCC5)cc4)no3)c2cc1F [A44, 5-fluoro-6-(2-methoxyethoxy)-3-{3-[4-(1,4-oxazepane-4-carbonyl)phenyl]-1,2-oxazol-5-yl}-1H-indazole] | 1.1 nM | 41 nM |  | 
COCCOc1cc2[nH]nc(-c3cc(-c4ccc(C(=O)N5C[C@H]6CC(=O)N[C@H]6C5)cc4)no3)c2cc1F (relative stereo) [A203, (cis)-5-(4-{5-[5-fluoro-6-(2-methoxyethoxy)-1H-indazol-3-yl]-1,2-oxazol-3-yl}benzoyl)-octahydropyrrolo[2,3-c]pyrrol-2-one] | 1.4 nM | 560 nM |  | 
COCCOc1cc2[nH]nc(-c3cc(-c4ccc(C(=O)N5CC(N6CCOCC6)C5)cc4)no3)c2cc1F [A53, 5-fluoro-6-(2-methoxyethoxy)-3-(3-{4-[3-(morpholin-4-yl)azetidine-1-carbonyl]phenyl}-1,2-oxazol-5-yl)-1H-indazole] | 1.4 nM | 15 nM |  | 
COCCOc1cc2[nH]nc(-c3cc(-c4ccc(C(=O)N5CC[C@@H]5CS(C)(=O)=O)cc4)no3)c2cc1F [A154, 5-fluoro-3-(3-{4-[(2R)-2-(methanesulfonylmethyl)azetidine-1-carbonyl]phenyl}-1,2-oxazol-5-yl)-6-(2-methoxyethoxy)-1H-indazole] | 0.89 nM | 110 nM |  | 
COCCOc1cc2[nH]nc(-c3cc(-c4ccc(C(=O)N5CC(C)(N)C5)cc4)no3)c2cc1F [A56, 1-(4-{5-[5-fluoro-6-(2-methoxyethoxy)-1H-indazol-3-yl]-1,2-oxazol-3-yl}benzoyl)-3-methylazetidin-3-amine] | 1.6 nM | 170 nM |  | 
COc1cc2[nH]nc(-c3cc(-c4ccc(C(=O)N5CCNCC5)cc4)no3)c2cc1F [A225, {4-[5-(5-fluoro-6-methoxy-1H-indazol-3-yl)-isoxazol-3-yl]-phenyl}-piperazin-1-yl-methanone] | 3.1 nM | 340 nM |  | 
COCCOc1cc2[nH]nc(-c3cc(-c4ccc(C(=O)N5CCC56COC6)cc4)no3)c2cc1F [A112, 5-fluoro-6-(2-methoxyethoxy)-3-[3-(4-{6-oxa-1-azaspiro[3.3]heptane-1-carbonyl}phenyl)-1,2-oxazol-5-yl]-1H-indazole] | 1.3 nM | 32 nM |  | 
COCCOc1cc2[nH]nc(-c3cc(-c4cnn(C)c4)no3)c2cc1F [A137, 5-fluoro-6-(2-methoxy-ethoxy)-3-[3-(1-methyl-1H-pyrazol-4-yl)-isoxazol-5-yl]-1H-indazole] | 7.6 nM | 180 nM |  | 
COCCOc1cc2[nH]nc(-c3cc(-c4ccc(C(=O)N5CCN(C6COC6)CC5)cc4)no3)c2cc1Cl [A194, (4-{5-[5-chloro-6-(2-methoxy-ethoxy)-1H-indazol-3-yl]-isoxazol-3-yl}-phenyl)-(4-oxetan-3-yl-piperazin-1-yl)-methanone] | 0.78 nM | 44 nM |  | 
COCCOc1cc2[nH]nc(-c3cc(-c4ccc(N=S(C)(C)=O)cc4)no3)c2cc1F [A47, [(4-{5-[5-fluoro-6-(2-methoxyethoxy)-1H-indazol-3-yl]-1,2-oxazol-3-yl}phenyl)imino]dimethyl-lambda6-sulfanone] | 2.4 nM | 77 nM |  | 
COCCOc1cc2[nH]nc(-c3cc(-c4ccc(C(=O)N5CCC56COC6)c(F)c4)no3)c2cc1F [A170, (2-fluoro-4-{5-[5-fluoro-6-(2-methoxy-ethoxy)-1H-indazol-3-yl]-isoxazol-3-yl}-phenyl)-(6-oxa-1-aza-spiro[3.3]hept-1-yl)-methanone] | 2.6 nM | 120 nM |  | 
COCCOc1cc2[nH]nc(-c3cc(-c4ccc(C(=O)N5CCN(C6COC6)CC5)c(F)c4)no3)c2cc1F [A196, (2-fluoro-4-{5-[5-fluoro-6-(2-methoxy-ethoxy)-1H-indazol-3-yl]-isoxazol-3-yl}-phenyl)-(4-oxetan-3-yl-piperazin-1-yl)-methanone] | 3.8 nM | 48 nM |  | 
COCCOc1cc2[nH]nc(-c3cc(-c4ccc(C(=O)N5CC(c6cccnc6)C5)cc4)no3)c2cc1F [A192, 5-fluoro-6-(2-methoxyethoxy)-3-(3-{4-[3-(pyridin-3-yl)azetidine-1-carbonyl]phenyl}-1,2-oxazol-5-yl)-1H-indazole] | 0.45 nM | 14 nM |  | 
COCCOc1cc2[nH]nc(-c3cc(-c4ccc(C(=O)N5CC(N6CCC(O)CC6)C5)cc4)no3)c2cc1F [A103, 1-[1-(4-{5-[5-fluoro-6-(2-methoxyethoxy)-1H-indazol-3-yl]-1,2-oxazol-3-yl}benzoyl)azetidin-3-yl]piperidin-4-ol] | 0.96 nM | 140 nM |  | 
COCCOc1cc2[nH]nc(-c3cc(-c4ccc(C(=O)N5CC[C@H](F)C5)cc4)no3)c2cc1F [A32, 5-fluoro-3-(3-{4-[(3S)-3-fluoropyrrolidine-1-carbonyl]phenyl}-1,2-oxazol-5-yl)-6-(2-methoxyethoxy)-1H-indazole] | 0.91 nM | 39 nM |  | 
COCCOc1cc2[nH]nc(-c3cc(-c4ccc(C(=O)N5CCC6(CC5)COC6)cc4)no3)c2cc1F [A60, 7-(4-{5-[5-fluoro-6-(2-methoxyethoxy)-1H-indazol-3-yl]-1,2-oxazol-3-yl}benzoyl)-2-oxa-7-azaspiro[3.5]nonane] | 0.44 nM | 28 nM |  | 
COCCOc1cc2[nH]nc(-c3cc(-c4ccc(C(=O)N5CC(N6CCN(C)CC6)C5)cc4)no3)c2cc1Cl [A65, (4-{5-[5-chloro-6-(2-methoxy-ethoxy)-1H-indazol-3-yl]-isoxazol-3-yl}-phenyl)-[3-(4-methyl-piperazin-1-yl)-azetidin-1-yl]-methanone] | 0.89 nM | 160 nM |  | 
